# Source: PMC5608556, “Photo-affinity labelling and biochemical analyses identify the target of trypanocidal simplified natural product analogues” (PLoS Neglected Tropical Diseases, 2017)
# Like-named read-outs stand apart in the source and are kept apart here.
# How the values were obtained:
# [1] = test system: ATP production (oxidative phosphorylation) in digitonin-permeabilised PF T. brucei; assay: ATP production assay in digitonin-permeabilised cells; type: cell-based, Trypanosoma brucei; conditions: for Effect on ATP production from succinate: succinate 2.5 mM as substrate
# From the text: We next sought to identify the point at which ATP production was blocked using digitonin-permeabilised cells. Digitonin permeabilises the plasma membrane of trypanosomatids, but crucially, leaves the glycosomes and mitochondria intact and fully functional, allowing them to be probed with compartment-specific ATP-yielding substrates. Digitonin-permeabilised PF T. brucei were probed with succinate, which is readily transported across the PF T. brucei mitochondrial membrane by the dicarboxylic acid carrier and can yield only oxidative phosphorylation-derived ATP through the FoF1-ATP synthase (complex V).
# Fig 5 Inhibition of ATP production in digitonin-permeabilsed cells. (A-C) Digitonin-permeabilised PF T. brucei were probed with substrates in the presence of inhibitors and resulting ATP production quantified by bioluminescence assay. See experimental section for details. Inhibitors were used at saturating concentrations to ensure that relevant enzyme activities were ablated. Key: NS, no substrate; NI, no inhibitor; SHAM, salicylhydroxamic acid (TAO inhibitor at 100 μM); Rotenone (complex I inhibitor at 100 μM); Malonate (complex II inhibitor at 5 mM); AA, antimycin A (complex III inhibitor at 200 μM); OA, oligomycin A (complex V inhibitor at 200 μM); DNP, 2,4-dinitrophenol (protonophore at 1 mM); Comp.1, compound 1 at 200 μM. Background relative light units (RLU) were subtracted from measurements and % ATP production normalised to the no inhibitor control. Data were averaged from three independent experiments, each performed in quadruplicate. Error bars show standard deviations. T-tests were performed against no inhibitor controls (black asterisks) and compound 1 (grey open circles) and significance values presented: p < 0.00005 (*** / °°°), p < 0.0005 (** / °°), p < 0.005 (* / °). (A) Succinate was used as a substrate to generate ATP solely through oxidative phosphorylation (OxPhos). Oxidative phosphorylation inhibitors malonate, AA, OA and DNP virtually eliminated all ATP production. […] (B) α-ketoglutarate yields 40% ATP through substrate-level phosphorylation (SubPhos) and 60% through oxidative phosphorylation. Malonate, AA, OA and DNP inhibit oxidative phosphorylation, but not substrate-level phosphorylation. […] (C) Gly-3P acts as an alternative entry site to the electron transport chain yielding ATP through oxidative phosphorylation and the glycosome (GlyPhos). Malonate has no effect, as it acts at a different entry point. AA, OA and DNP inhibit oxidative phosphorylation, but not glycosomal phosphorylation.
# ATP production assays were carried out in duplicate, and three independent assays were conducted. Cells were digitonin-permeabilised as previously described. Briefly, cells were washed in PBS and permeabilised for 5 min at a density of 1x10^8 cells/mL in SoTE buffer (20 mM Tris.HCl (pH 7.5), 2 mM EDTA pH 7.5, 600 mM sorbitol) supplemented with 0.015% (w/v) digitonin. Permeabilised cells were pelleted at 5000 g for 3 min at 4°C and suspended to 8.4x10^7 cells/mL in ATP assay buffer (20 mM Tris.HCl (pH 7.4), 15 mM KH2PO4, 0.6 M sorbitol, 10 mM MgSO4, 2.5 mg/mL fatty acid-free BSA.
# ATP production assays were carried out in 75 μl volumes in 96-well plates with a final PF T. brucei cell density of 6.7 x 10^7 cells/mL as previously reported. […] B-THP-Ts, antimycin A (AA) and oligomycin A (OA) were used at 200 μM, Dinitrophenol (DNP) at 1 mM, malonate at 5 mM, rotenone at 100 μM and salicylhydroxamic acid (SHAM) at 100 μM. 59.25 μL digitonin-permeabilised cells (prepared above) were added to 0.75 μl inhibitor dissolved in DMSO (or 0.75 μL DMSO without inhibitor for no inhibitor control) and incubated for 10 min to allow inhibitors to take effect. Substrate was added to 2.5 mM and incubated for 10 min. Reactions were started with the addition of ADP to 60 μM and incubated at RT for 30 min. […]
# [2] = test system: cellular ATP production in PF T. brucei; assay: ATP monitoring in live PF cells (proline as sole carbon source, bioluminescence); type: cell-based, Trypanosoma brucei; conditions: 2 h, normalised to no inhibitor control
# Protocol: We first set out to determine if B-THP-T compounds affected cellular ATP levels. PF T. brucei were incubated in buffered PBS with/without proline as the sole carbon source and various inhibitors for 2 h. Cells were harvested and their ATP content was determined by bioluminescence assay. Two ETC inhibitors were used as positive control: malonate is a competitive inhibitor of mitochondrial complex II and prevents the […] of succinate to fumarate and entry of electrons to the ETC; and antimycin A (AA) is a mitochondrial complex III inhibitor, which prevents the transfer of electrons to cytochrome c and ubiquinone recycling. […] Compound 1 inhibited ATP production in a dose-response manner to similar levels (by 55 ± 6%), supporting the hypothesis from pull-down data that its target is involved in the ATP production pathway from proline.
# Fig 4 B-THP-Ts decrease cellular ATP levels. PF T. brucei cells were incubated in buffered PBS with/without proline (as sole carbon source) and various inhibitors (concentrations indicated) incubated for 2 h, after which cells were harvested and cellular ATP levels were monitored by bioluminescence assay. Key: NS, no substrate; NI, no inhibitor control; Malonate (complex II inhibitor) AA, antimycin A (AA, complex III inhibitor). Background relative light units (RLU) were subtracted from measurements and % ATP production normalised to the no inhibitor control. Data were averaged from two independent experiments, each performed in duplicate (n = 4). Error bars show standard deviations. […]
# Effects of compounds on proline metabolism were determined using a methodology adapted from Podolec et al. Briefly, glucose-free-conditioned PF T. brucei cells were washed into buffered PBS and incubated in 200 μl volumes with inhibitors for 10 min. […] Supernatants containing metabolic end-products and citrate standard were analysed to evaluate effects on proline metabolism (see below), while the ATP content of cells was determined as follows. […] ATP content was determined as above.
# [3] = glycerol-3-phosphate as substrate, 30 min, compound 1, AA, OA 200 μM, DNP 1 mM
# [4] = 30 min, compound 1, AA, OA 200 μM, DNP 1 mM, malonate 5 mM, rotenone, SHAM 100 μM
Compound,"IC50 ([1]; Trypanosoma brucei, 0.5 h, read-out: IC50 against oxidative phosphorylation (ATP production), Gly-3P as substrate, digitonin-permeabilised PF T. brucei, Gly-3P, 30 min incubation) [µM]","IC50 ([1]; Trypanosoma brucei, 0.5 h, read-out: IC50 against oxidative phosphorylation (ATP production), succinate as substrate, digitonin-permeabilised PF T. brucei, succinate, 30 min incubation) [µM]","Inhibition of ATP production from Gly-3P [1, 3] [%]","IC50 ([1]; read-out: IC50 against oxidative phosphorylation (ATP production), Gly-3P as substrate, digitonin-permeabilised PF T. brucei, Gly-3P, 30 min incubation) [µM]","IC50 ([1]; read-out: IC50 against oxidative phosphorylation (ATP production), succinate as substrate, digitonin-permeabilised PF T. brucei, succinate, 30 min incubation) [µM]","Effect on ATP production from succinate [1, 4]","Inhibition of ATP production from α-ketoglutarate ([1]; α-ketoglutarate as substrate, 30 min, compound 1, AA, OA 200 μM, DNP 1 mM, malonate 5 mM) [%]",Inhibition of cellular ATP production [2] [%],"Effect on ATP production from Gly-3P ([1]; glycerol-3-phosphate as substrate, 30 min, malonate 5 mM, rotenone, SHAM 100 μM)"
CCCCCC[C@H]1CCC[C@@H](Cn2cc([C@@H]3CCC[C@H](CCCCO)O3)nn2)O1 [Compound 1],39.2 ± 4.6,57.3 ± 14.5,82 ± 16,39 ± 5,57 ± 15,decreased ATP production from succinate to similar levels,67 ± 13,55 ± 6,–
CCCCCC[C@H]1C(=O)O[C@H](C)[C@H](NC(=O)c2cccc(NC=O)c2O)C(=O)O[C@@H](C)[C@@H]1OC(=O)CC(C)C [antimycin A],–,–,75 ± 14,–,–,almost abolished ATP production,–,71 ± 9,–
O=C(O)CC(=O)O [malonate],–,–,–,–,–,completely eliminated all ATP production,–,62 ± 15,no effect
